Laboratory results reported in patent US20240287138A1, “CYCLIC PEPTIDES FOR INHIBITING TNF RECEPTOR 1 ACTIVITY” (Merck Sharp & Dohme LLC, priority 2023, published 2024).
pKd: −log10 of the molar value. Numbered stars: 1 amine (or outer) side, 2 acyl side, 3 side chain; on linkers, the order of the positions; unused ones are H or OH. Square brackets hold non-standard residues; d marks the D form. Peptide text beside a SMILES is read from it. Trp(βS-Me,7-OMe) = COc1cccc2c([C@H](C)[C@H](N)C(=O)O)c[nH]c12; Trp(7-CN) = N#Cc1cccc2c(C[C@H](N)C(=O)O)c[nH]c12; Phe(4-CONH2) = NC(=O)c1ccc(C[C@H](N)C(=O)O)cc1; Phe(4-COOH) = N[C@@H](Cc1ccc(C(=O)O)cc1)C(=O)O; Pip(5R-OH) = O=C(O)[C@@H]1CC[C@@H](O)CN1; X1 = O=C([C@@H]1CC[C@H](N[*:1])C1)[*:2]; 4Pal = N[C@@H](Cc1ccncc1)C(=O)O; dHyp = O=C(O)[C@H]1C[C@H](O)CN1; hSer = N[C@@H](CCO)C(=O)O; αMeS = C[C@](N)(CO)C(=O)O; Sar = CNCC(=O)O

Tests used:
[1] = target: T1, human soluble TNFR1 (sTNFR1) (Homo sapiens, UniProt P19438); experiment: Human sTNFR1-peptide displacement assay (LanthaScreen Eu TR-FRET binding assay)
T1 construct: made in house; host or cells: Sf21 (baculovirus)
T1 sequence (P19438 with tags, fused parts or gaps): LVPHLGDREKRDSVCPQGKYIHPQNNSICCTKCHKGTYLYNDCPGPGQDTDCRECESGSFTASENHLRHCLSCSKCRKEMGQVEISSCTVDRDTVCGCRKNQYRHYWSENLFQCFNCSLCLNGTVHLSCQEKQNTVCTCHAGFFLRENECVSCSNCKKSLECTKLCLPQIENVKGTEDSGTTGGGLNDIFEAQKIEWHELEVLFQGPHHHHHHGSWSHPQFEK
Outline: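 Readout is the 665/615 nm TR-FRET ratio (Eu anti-His donor, streptavidin-Alexa647 acceptor), normalized to DMSO and saturating displacer, fit by Morrison-based five-parameter logistic for Kd^app. His-tagged sTNFR1 (1-211) prebound to 100 nM biotinylated peptide SEQ ID NO.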

[2] = target: T2, human TNFR1 extracellular domain (ECD) protein (Homo sapiens, UniProt P19438); experiment: SPR binding affinity to captured human TNFR1 ECD
T2 construct: HRV 3C protease cleavage site (C); 6His (C, cleaved yes); made in house; host or cells: Sf21 insect cells (baculovirus), secreted
T2 sequence (P19438 30-211): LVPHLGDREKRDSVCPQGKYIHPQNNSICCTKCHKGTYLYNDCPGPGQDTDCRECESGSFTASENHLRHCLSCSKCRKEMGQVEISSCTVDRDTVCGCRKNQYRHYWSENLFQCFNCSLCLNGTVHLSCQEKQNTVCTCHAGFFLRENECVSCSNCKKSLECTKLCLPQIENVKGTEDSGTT
Outline: (§1)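 Insect-cell human receptor ECDs, enzymatically biotinylated, immobilized via streptavidin capture chip. Peptide binding and dissociation measured in RU in pH 7.4 HEPES buffer containing 2% DMSO; chip regenerated per analyte. Rate constants give affinity.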

human TNFR2 ECD protein = target: T3, human TNFR2 ECD protein (Homo sapiens, UniProt P20333); experiment: SPR off-target binding (selectivity) to human TNFR2 ECD
T3 construct: HRV 3C protease cleavage site (C); 6His (C, cleaved yes); made in house; host or cells: Sf21 insect cells (baculovirus), secreted
T3 sequence (P20333 23-257): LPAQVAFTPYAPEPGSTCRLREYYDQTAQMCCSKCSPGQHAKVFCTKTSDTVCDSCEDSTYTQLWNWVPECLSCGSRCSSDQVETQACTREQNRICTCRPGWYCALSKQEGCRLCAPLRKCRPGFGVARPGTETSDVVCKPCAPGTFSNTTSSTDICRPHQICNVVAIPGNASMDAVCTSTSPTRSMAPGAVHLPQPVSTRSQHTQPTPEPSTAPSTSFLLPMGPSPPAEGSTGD
Outline: as §1

## COCC[C@@H]1NC(=O)[C@@H]2CC[C@@H](C2)NC(=O)[C@H]([C@@H](C)c2c[nH]c3c(OC)cccc23)NC(=O)CN(C)C(=O)[C@H](Cc2ccc(C(N)=O)cc2)NC(=O)[C@H](Cc2ccc(C(N)=O)cc2)NC(=O)[C@](C)(CO)NC(=O)[C@H](Cc2c[nH]c3c(C#N)cccc23)NC(=O)[C@H](Cc2ccc(C(=O)O)cc2)NC(=O)[C@H](CC(N)=O)NC(=O)[C@H]2C[C@H](O)CN2C(=O)[C@H](Cc2c[nH]c3ccccc23)NC(=O)[C@@H]2CC[C@@H](O)CN2C(=O)[C@H](Cc2ccncc2)NC1=O [SEQ ID NO. 194] (cyclo([4Pal][Pip(5R-OH)]W[dHyp]N[Phe(4-COOH)][Trp(7-CN)][αMeS][Phe(4-CONH2)][Phe(4-CONH2)][Sar][Trp(βS-Me,7-OMe)][X1][hSer](Me)))
[1]
  pKd: 10.30
[2]
  pKd: 10.40
Human TNFR2 ECD protein
  pKd: < 6.00
